Assay results as given in US7943618B2, “Btk protein kinase inhibitors” (Roche Palo Alto LLC, priority 2007, dated 2011).

How the values were obtained:
[1] = target: T1, Btk enzyme (His-tagged, full-length) (Homo sapiens, UniProt Q06187); test: Bruton's Tyrosine Kinase (Btk) Inhibition Assay (33P filtration capture); type: biochemical; settings: Bruton's tyrosine kinase Assay (Example 34), 100 μM ATP
T1 construct: 5-10 nM Btk enzyme (His-tagged, full-length); His
Excerpt: Bruton's Tyrosine Kinase (Btk) Inhibition Assay
The assay is a capture of radioactive ^33P phosphorylated product through filtration. The interactions of Btk, biotinylated SH2 peptide substrate (Src homology), and ATP lead to phosphorylation of the peptide substrate. Biotinylated product is bound streptavidin sepharose beads. All bound, radiolabeled products are detected by scintillation counter.
Plates assayed are 96-well polypropylene (Greiner) and 96-well 1.2 μm hydrophilic PVDF filter plates (Millipore).
IC50 determinations are calculated from 10 data points per compound utilizing data produced from a standard 96-well plate assay template. One control compound and seven unknown inhibitors were tested on each plate and each plate was run twice. […] The control compound was staurosporine. Background was counted in the absence of peptide substrate. Total activity was determined in the presence of peptide substrate. The following protocol was used to determine Btk inhibition.
1) Sample preparation: The test compounds were diluted at half-log increments in assay buffer (imidazole, glycerol-2-phosphate, EGTA, MnCl2, MgCl2, BSA).
2) Bead preparation • a.) rinse beads by centrifuging at 500 g • b.) reconstitute the beads with PBS and EDTA to produce a 20% bead slurry
3) Pre-incubate reaction mix without substrate (assay buffer, DTT, ATP, ^33P ATP) and mix with substrate (assay buffer, DTT, ATP, ^33P ATP, peptide substrate) 30° C. for 15 min.
4) To start assay, pre-incubate 10 μL Btk in enzyme buffer (imidazole, glycerol-2-phosphate, BSA) and 10 μL of test compounds for 10 min at RT.
5) Add 30 μL reaction mixture without or with substrate to Btk and compounds.
6) Incubate 50 μL total assay mix for 30 min at 30° C.
7) Transfer 40 μL of assay to 150 μL bead slurry in filter plate to stop reaction.
8) Wash filter plate after 30 min, with following steps • a. 3×250 μL NaCl • b. 3×250 μL NaCl containing 1% phosphoric acid • c. 1×250 μL H2O
9) Dry plate for 1 h at 65° C. or overnight at RT
10) Add 50 μL microscint-20 and count ^33P cpm on scintillation counter.
Calculate percent activity from raw data in cpm percent activity=(sample−bkg)/(total activity−bkg)×100
Calculate IC50 from percent activity, using one-site dose response sigmoidal model y=A+((B−A)/(1+((x/C)^D))))

T1 sequence (Q06187 whole entry): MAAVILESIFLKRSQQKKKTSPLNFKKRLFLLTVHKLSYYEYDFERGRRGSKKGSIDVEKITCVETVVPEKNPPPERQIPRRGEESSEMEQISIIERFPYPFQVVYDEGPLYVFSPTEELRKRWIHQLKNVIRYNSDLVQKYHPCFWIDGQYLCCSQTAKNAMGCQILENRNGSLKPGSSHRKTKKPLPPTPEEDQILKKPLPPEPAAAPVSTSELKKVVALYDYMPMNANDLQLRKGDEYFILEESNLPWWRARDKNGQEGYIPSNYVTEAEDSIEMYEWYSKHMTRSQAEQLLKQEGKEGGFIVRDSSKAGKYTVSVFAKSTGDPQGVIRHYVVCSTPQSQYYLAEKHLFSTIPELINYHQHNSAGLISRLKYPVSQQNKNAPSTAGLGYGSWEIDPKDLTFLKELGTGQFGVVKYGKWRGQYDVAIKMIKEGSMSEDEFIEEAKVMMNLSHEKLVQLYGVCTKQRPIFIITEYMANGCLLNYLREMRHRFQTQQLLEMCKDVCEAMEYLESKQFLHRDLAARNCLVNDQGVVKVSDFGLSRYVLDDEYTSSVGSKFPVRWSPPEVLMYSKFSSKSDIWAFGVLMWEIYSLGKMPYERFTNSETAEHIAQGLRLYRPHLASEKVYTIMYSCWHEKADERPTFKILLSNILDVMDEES

Row | Structure (SMILES) | melting point [°C] | IC50 ([1]; Table I pyridazinones) [nM] | IC50 ([1]; Table II pyridinones) [nM]
1 | COc1cc(C(C)(C)C)ccc1C(=O)Nc1cccc(-c2cc(Nc3ccc(C(=O)N4CCOCC4)cn3)c(=O)n(C)n2)c1C [Compound I-7] | 156.5 to 157 | 272 | –
2 | CC(C)N1CCN(C(=O)Cc2cccc(-c3cc(Nc4ccc(C(=O)N5CCOCC5)cn4)c(=O)n(C)n3)c2)CC1 [Compound I-41] | 209 to 210 | 6250 | –
3 | CNC(=O)Nc1cc(-c2cccc(NC(=O)c3ccc(C(C)(C)C)cc3)c2C)nn(C)c1=O [Compound I-23, 4-tert-Butyl-N-{2-methyl-3-[1-methyl-5-(3-methyl-ureido)-6-oxo-1,6-dihydro-pyridazin-3-yl]-phenyl}-benzamide] | 287 to 288 | 101 | –
4 | CSc1nccc(Nc2cc(-c3cccc(NC(=O)c4ccc(C(C)(C)C)cc4)c3C)nn(C)c2=O)n1 [Compound I-12] | 224 to 225 | 51 | –
5 | Cc1c(NC(=O)c2ccc(C(C)(C)C)cc2)cccc1-c1cc(NC(=O)NC(C)C)c(=O)n(C)c1 [II-6] | 185 to 186 | – | 308
6 | Cc1c(NC(=O)c2ccc(C(C)(C)C)cc2)cccc1-c1cc(NC(=O)NCCN(C)C)c(=O)n(C)c1 [II-16] | 164 to 165 | – | 129
7 | CNC(=O)Nc1cc(-c2cccc(CC(=O)N3CC(OC(C)(C)C)C3)c2)cn(C)c1=O [II-29, 1-(5-{3-[2-(3-tert-Butoxy-azetidin-1-yl)-2-oxo-ethyl]-phenyl}-1-methyl-2-oxo-1,2-dihydro-pyridin-3-yl)-3-methyl-urea] | 125 to 126 | – | 1400
8 | Cc1c(NC(=O)c2ccc(C(C)(C)C)cc2)cccc1-c1cc(Nc2ccc(C(=O)N3CCN(C)CC3)cn2)c(=O)n(C)n1 [Compound I-2] | 158 to 160 | 14 | –
9 | Cc1c(NC(=O)c2ccc(C(C)(C)C)cc2)cccc1-c1cc(Nc2ccc(C(=O)N3CCOCC3)cc2)c(=O)n(C)n1 [Compound I-24] | 157 to 158 | 110 | –
10 | Cc1c(NC(=O)c2ccc(C(C)(C)C)cc2)cccc1-c1cc(Nc2ccnc(OCCN(C)C)n2)c(=O)n(C)n1 [Compound I-18] | 188 to 189 | 326 | –
11 | Cc1c(NC(=O)N2CCN(C(C)(C)C)CC2)cccc1-c1cc(Nc2ccc(C(=O)N3CCOCC3)cn2)c(=O)n(C)n1 [Compound I-6, 4-tert-Butyl-piperazine-1-carboxylic acid (2-methyl-3-{1-methyl-5-[5-(morpholine-4-carbonyl) -pyridin-2-ylamino]-6-oxo-1,6-dihydro-pyridazin-3-yl}-phenyl)-amide] | 166 to 169 | 15500 | –
12 | Cc1c(NC(=O)c2ccc(C(C)(C)O)cc2)cccc1-c1cc(Nc2ccc(C(=O)N3CCN(C)CC3)cn2)c(=O)n(C)n1 [Compound I-5] | 167.5 to 168.5 | 122 | –
13 | CC(C)OC1CN(C(=O)Cc2cccc(-c3cc(Nc4ccc(C(=O)N5CCOCC5)cn4)c(=O)n(C)n3)c2)C1 [Compound I-35] | 92 to 93 | 418 | –
14 | Cc1c(NC(=O)c2ccc(C(C)(C)C)cc2)cccc1-c1cc(Nc2ccnc(N3CCC(CO)C3)n2)c(=O)n(C)n1 (stereo not drawn) [Compound I-20] | 210 to 211 | 125 | –
15 | Cc1c(NC(=O)c2ccc(C(C)(C)C)cc2)cccc1-c1cc(Nc2ccc(C(=O)N3CCOCC3)cn2)c(=O)n(C)n1 [Compound I-1, 4-tert-Butyl-N-(2-methyl-3-{1-methyl-5-[5-(morpholine-4-carbonyl)-pyridin-2-ylamino]-1,6-oxo-dihydro-pyridazin-3-yl}-phenyl)-benzamide] | 148 to 150 | < 10 | –
16 | COc1cc(C(C)(C)C)ccc1C(=O)Nc1cccc(-c2cc(Nc3ccc(C(=O)N4CCOCC4)cn3)c(=O)n(C)n2)c1 [Compound I-30] | 216 to 217 | 59 | –
17 | CNC(=O)Nc1cc(-c2cccc(NC(=O)c3ccc(C(C)(C)C)cc3)c2C)cn(C)c1=O [II-4, 4-tert-Butyl-N-{2-methyl-3-[1-methyl-5-(3-methyl-ureido)-6-oxo-1,6-dihydro-pyridin-3-yl]-phenyl}-benzamide] | 262 to 264 | – | –
18 | Cn1nc(-c2cccc(CC(=O)NCCC(C)(C)C)c2)cc(Nc2ccc(C(=O)N3CCOCC3)cn2)c1=O [Compound I-43] | 138 to 139 | 6290 | –
19 | Cc1c(NC(=O)c2ccc(C(C)(C)C)cc2)cccc1-c1cc(NC(=O)NCc2ccccc2)c(=O)n(C)c1 [II-9] | 169 to 170 | – | 1240
20 | CNC(=O)Nc1cc(-c2cccc(CC(=O)N3CC(CC(C)(C)O)C3)c2)cn(C)c1=O [II-47] | 113 to 114 | – | 54700
21 | Cn1nc(-c2cccc(CC(=O)OCCOC(C)(C)C)c2)cc(Nc2ccc(C(=O)N3CCOCC3)cn2)c1=O [Compound I-36] | 80 to 81 | 2200 | –

Row | Structure (SMILES) | melting point [°C] | IC50 ([1]; Table I pyridazinones) [nM] | IC50 ([1]; Table II pyridinones) [nM]
22 | Cn1nc(-c2cccc(CC(=O)N3Cc4ccccc4C3)c2)cc(Nc2ccc(C(=O)N3CCOCC3)cn2)c1=O [Compound I-40] | 179 to 180 | 680 | –
23 | Cc1c(NC(=O)c2ccc(C(C)(C)C)cc2)cccc1-c1cc(NC(=O)Nc2ccccc2)c(=O)n(C)c1 [II-8] | 219 to 220 | – | 7320
24 | CNC(=O)Nc1cc(-c2cccc(CC(=O)N3CC(OC(C)C)C3)c2)cn(C)c1=O [II-30] | 118 to 119 | – | 4370
25 | CNC(=O)Nc1cc(-c2cccc(NC(=O)c3cc4ccccc4s3)c2C)cn(C)c1=O [II-10] | 286 to 287 | – | 131
26 | Cn1cc(-c2cccc(NC(=O)c3ccc(C4CC4)cc3)c2CO)cc(Nc2ccc(C(=O)N3CCC3)cn2)c1=O [II-101] | – | – | < 10
27 | Cn1nc(-c2cccc(CC(=O)N3Cc4ccccc4C3)c2)cc(Nc2ccc(C(=O)N3CCC(O)CC3)cn2)c1=O [Compound I-31] | – | 155 | –
28 | Cn1cc(-c2cccc(NC(=O)c3ccc(Br)cc3)c2CO)cc(Nc2ccc(C(=O)N3CCOCC3)cn2)c1=O [II-63] | – | – | 31
29 | Cn1cc(-c2cccc(NC(=O)c3ccc(C4CC4)cc3)c2CO)cc(NC(=O)NCCc2cccnc2)c1=O [II-79] | – | – | 160
30 | CNC(=O)Nc1cc(-c2cccc(NC(=O)c3ccc(N4CCCCC4)nc3)c2C)cn(C)c1=O [II-19] | – | – | 310
31 | CCC(O)CNC(=O)Nc1cc(-c2cccc(NC(=O)c3ccc(C4CC4)cc3)c2CO)cn(C)c1=O (stereo not drawn) [II-85] | – | – | 46
32 | Cn1cc(-c2cccc(NC(=O)c3ccc(C4CC4)cc3)c2CO)cc(NC(=O)NCCc2ccccn2)c1=O [II-78] | – | – | 214
33 | Cn1cc(-c2cccc(NC(=O)c3ccccc3)c2CO)cc(Nc2ccc(C(=O)N3CCOCC3)cn2)c1=O [II-67] | – | – | 770
34 | COC(=O)c1ccc(Nc2cc(-c3cccc(NC(=O)c4ccc(C(C)(C)C)cc4)c3C)nn(C)c2=O)nc1 [Compound I-9] | – | 160 | –
35 | Cn1cc(-c2cccc(NC(=O)c3ccc(C(F)(C(F)(F)F)C(F)(F)F)cc3)c2CO)cc(Nc2ccc(C(=O)N3CCOCC3)cn2)c1=O [II-68] | – | – | 71
36 | Cn1nc(-c2cccc(NC(=O)c3ccc(C4CC4)cc3)c2CO)cc(Nc2ccc(C(=O)N3CCOCC3)cn2)c1=O [Compound I-46] | – | < 10 | –
37 | COC(C)(C)c1ccc(C(=O)Nc2cccc(-c3cc(Nc4ccc(C(=O)N5CCOCC5)cn4)c(=O)n(C)c3)c2CO)cc1 [II-66] | – | – | 24
38 | Cc1c(NC(=O)c2ccc(C(C)(C)C)cc2)cccc1-c1cc(Nc2ccnc(OCC3CCNC3)n2)c(=O)n(C)n1 (stereo not drawn) [Compound I-19, 4-tert-Butyl-N-(2-methyl-3-{1-methyl-6-oxo-5-[2-(pyrrolidin-3-ylmethoxy)-pyrimidin-4-ylamino]-1,6-dihydro-pyridazin-3-yl}-phenyl)-benzamide] | – | 143 | –
39 | Cn1cc(-c2cccc(NC(=O)c3ccc(C4(Cl)CC4)cc3)c2CO)cc(Nc2ccc(C(=O)N3CCOCC3)cn2)c1=O [II-75] | – | – | < 10
40 | Cc1c(NC(=O)c2ccc(C(C)(C)O)cc2)cccc1-c1cc(Nc2ccc(C(=O)N3CCOCC3)cn2)c(=O)n(C)n1 [Compound I-15] | – | 374 | –
41 | CCNC(=O)Nc1cc(-c2cccc(NC(=O)c3ccc(C4(F)CC4)cc3)c2CO)cn(C)c1=O [II-65] | – | – | 15
42 | CN(C)c1ccc(C(=O)Nc2cccc(-c3cc(Nc4ccc(C(=O)N5CCOCC5)cn4)c(=O)n(C)c3)c2CO)cc1 [II-49, 4-Dimethylamino-N-(2-hydroxymethyl-3-{1-methyl-5-[5-(morpholine-4-carbonyl)-pyridin-2-ylamino]-6-oxo-1,6-dihydro-pyridin-3-yl}-phenyl)-benzamide] | – | – | < 10
